As a reminder, the IC50 is the concentration that inhibits the measured activity by half.

This note sets out measurements from US8071625B2, “Certain chemical entities, compositions, and methods” (Cytokinetics, Inc., priority 2006, dated 2011).

The target in the assay is T1, crosslinked smooth muscle actomyosin (chicken gizzard smooth muscle myosin subfragment-1 crosslinked to cardiac or skeletal actin) (Gallus gallus, UniProt P10587).
T1 construct: chicken gizzard smooth muscle myosin subfragment-1; from tissue; host or cells: chicken gizzard
In words: Lead optimization pyruvate kinase/horseradish peroxidase/pyruvate oxidase-coupled ATPase assay (compound dose response). In kind it is biochemical. The settings on record: read-out: IC50 Arithmetic Mean. The gist of the method: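 The ATPase used chicken gizzard smooth muscle myosin S1 chemically crosslinked to cardiac or skeletal actin, titrated to a set hydrolysis rate. It was coupled via pyruvate kinase/pyruvate oxidase/HRP in 12 mM K-PIPES pH 7.00 (22 °C) with 0.15 mM ATP, 2 mM MgCl2, 100 mM KCl and 0.1 mM Amplex Red. Fluorescence was read at ex 480/em 615 nm, and IC50 came from a 4-parameter fit.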

On to `CCc1ccc(NC(=O)OCC2(C(=O)NCc3ccc(F)cc3)CCN(C(=O)CNC(=O)OC(C)(C)C)CC2)cc1` [[(1-{2-[(tert-butoxy)carbonylamino]acetyl}-4-{N-[(4-fluorophenyl)methyl]carbamoyl}(4-piperidyl))methoxy]-N-(4-ethylphenyl)carboxamide], for which the IC50 amounted to 10100 nM.

As for `CCc1ccc(NC(=O)OC[C@@H](C)N(C)C(=O)NCc2ccccc2Cl)cc1` [[(2R)-2-({[(2-chlorophenyl)methyl]amino}-N-methylcarbonylamino)propoxy]-N-(4-ethylphenyl)carboxamide], the IC50 is 6810 nM.

With `CCc1ccc(NC(=O)OCC2(C(=O)NCc3cccc(Cl)c3Cl)CCN(C(=O)CNC(=O)OC(C)(C)C)CC2)cc1` [[(4-{N-[(2,3-dichlorophenyl)methyl]carbamoyl}-1-{2-[(tert-butoxy)carbonylamino]acetyl}(4-piperidyl))methoxy]-N-(4-ethylphenyl)carboxamide], the half-maximal inhibitory concentration (IC50) was 313 nM.

Regarding `CC(C)(C)OC(=O)NCC(=O)N1CCC(COC(=O)Nc2ccc(C(F)(F)F)cc2)(C(=O)NCc2cccc(Cl)c2Cl)CC1` [[(4-{N-[(2,3-dichlorophenyl)methyl]carbamoyl}-1-{2-[(tert-butoxy)carbonylamino]acetyl}(4-piperidyl))methoxy]-N-[4-(trifluoromethyl)phenyl]carboxamide], the IC50 stood at 3720 nM.

`CCc1ccc(NC(=O)OCC2(C(=O)NCc3cccc(F)c3F)CCN(C(=O)CNC(=O)OC(C)(C)C)CC2)cc1` [[(4-{N-[(2,3-difluorophenyl)methyl]carbamoyl}-1-{2-[(tert-butoxy)carbonylamino]acetyl}(4-piperidyl))methoxy]-N-(4-ethylphenyl)carboxamide]: the IC50 was determined as 1590 nM.

For the compound `CCc1ccc(NC(=O)OCC2(C(=O)NCc3ccccc3Br)CCN(C(=O)CNC)CC2)cc1` [[(4-{N-[(2-bromophenyl)methyl]carbamoyl}-1-[2-(methylamino)acetyl](4-piperidyl))methoxy]-N-(4-ethylphenyl)carboxamide], the IC50 was 168 nM.

Regarding `CCc1ccc(NC(=O)OCC2CN(C(=O)NCc3ccccc3Cl)CCO2)cc1` (stereo not drawn) [[(4-{N-[(2-chlorophenyl)methyl]carbamoyl}morpholin-2-yl)methoxy]-N-(4-ethylphenyl)carboxamide], the half-inhibitory concentration (IC50) is 11700 nM.

In the case of `CCc1ccc(NC(=O)OCC2(C(=O)NCc3ccccc3Cl)CCC2)cc1` [[({N-[(2-chlorophenyl)methyl]carbamoyl}cyclobutyl)methoxy]-N-(4-ethylphenyl)carboxamide], the IC50 worked out at 1880 nM.

In the case of `CCOC(=O)c1ccc(NC(=O)OCC2(C(=O)NCc3ccccc3Cl)CCOCC2)cc1` [ethyl 4-{[(4-{N-[(2-chlorophenyl)methyl]carbamoyl}-2H-3,4,5,6-tetrahydropyran-4-yl)methoxy]carbonylamino}benzoate], the IC50 worked out at 6390 nM.

On to `CCc1ccc(NC(=O)OCC2(C(=O)OC)CCN(C(=O)CN)CC2)cc1` [methyl 1-(2-aminoacetyl)-4-{[N-(4-ethylphenyl)carbamoyloxy]methyl}piperidine-4-carboxylate], for which the IC50 was found to be 18000 nM.

For `CCc1ccc(NC(=O)OCC2(C(=O)NCc3ccccc3Cl)CCN(CC(=O)OC)CC2)cc1` [methyl 2-(4-{N-[(2-chlorophenyl)methyl]carbamoyl}-4-{[N-(4-ethylphenyl)carbamoyloxy]methyl}piperidyl)acetate], the IC50 stood at 1520 nM.

For `COC(=O)c1ccccc1CNC(=O)C1(COC(=O)Nc2ccc(C(F)(F)F)cc2)CCN(C(=O)CN)CC1` [methyl 2-({[1-(2-aminoacetyl)-4-({N-[4-(trifluoromethyl)phenyl]carbamoyloxy}methyl)-4-piperidyl]carbonylamino}methyl)benzoate], the IC50 stood at 2290 nM.

For `CCc1ccc(NC(=O)NC2(C(=O)NCc3ccccc3Cl)CCN(C(=O)OC)C2)cc1` (stereo not drawn) [methyl 3-{N-[(2-chlorophenyl)methyl]carbamoyl}-3-{[(4-ethylphenyl)amino]carbonylamino}pyrrolidinecarboxylate], the IC50 came out at 18600 nM.

For `CCc1ccc(NC(=O)OCC2(C(=O)NCc3ccccc3Cl)CCCN(C(=O)OC)C2)cc1` (stereo not drawn) [methyl 3-{N-[(2-chlorophenyl)methyl]carbamoyl}-3-{[N-(4-ethylphenyl)carbamoyloxy]methyl}piperidinecarboxylate], the IC50 stood at 474 nM.

On to `CCc1ccc(NC(=O)OCC2(C(=O)NCc3ccccc3Cl)CCN(C(=O)CCC(=O)OC)CC2)cc1` [methyl 4-(4-{N-[(2-chlorophenyl)methyl]carbamoyl}-4-{[N-(4-ethylphenyl)carbamoyloxy]methyl}piperidyl)-4-oxobutanoate], for which the IC50 is 426 nM.

Turning to `CCc1ccc(NC(=O)OCC2(C(=O)NCc3ccccc3Cl)CCN(C(=O)OC)CC2)cc1` [methyl 4-{N-[(2-chlorophenyl)methyl]carbamoyl}-4-{[N-(4-ethylphenyl)carbamoyloxy]methyl}piperidinecarboxylate], the IC50 came to 530 nM.

For the compound `COC(=O)c1ccc(NC(=O)OCC2(C(=O)NCc3ccccc3Cl)CCN(C(=O)CN)CC2)cc1` [methyl 4-{[(1-(2-aminoacetyl)-4-{N-[(2-chlorophenyl)methyl]carbamoyl}-4-piperidyl)methoxy]carbonylamino}benzoate], the 50% inhibitory concentration (IC50) is 1810 nM.

`COC(=O)c1ccc(NC(=O)OCC2(C(=O)NCc3ccccc3Cl)CCOCC2)cc1` [methyl 4-{[(4-{N-[(2-chlorophenyl)methyl]carbamoyl}-2H-3,4,5,6-tetrahydropyran-4-yl)methoxy]carbonylamino}benzoate]: the IC50 was found to be 3550 nM.

Regarding `CCc1ccc(NC(=O)OC[C@H](C)N(CC(=O)OC(C)(C)C)C(=O)NCc2ccccc2Cl)cc1` [tert-butyl 2-(N-{(1S)-2-[N-(4-ethylphenyl)carbamoyloxy]-isopropyl}{[(2-chlorophenyl)methyl]amino}carbonylamino)acetate], the IC50 amounted to 18500 nM.

As for `CCc1ccc(NC(=O)OCC2(C(=O)NCc3ccccc3Cl)CCN(C(=O)C3CCN3C(=O)OC(C)(C)C)CC2)cc1` (stereo not drawn) [tert-butyl 2-[(4-{N-[(2-chlorophenyl)methyl]carbamoyl}-4-{[N-(4-ethylphenyl)carbamoyloxy]methyl}piperidyl)carbonyl]azetidinecarboxylate], the IC50 amounted to 4830 nM.

Consider `CCc1ccc(NC(=O)OCC2(C(=O)NCc3ccccc3Cl)CCN(C(=O)C3COCCN3C(=O)OC(C)(C)C)CC2)cc1` (stereo not drawn) [tert-butyl 3-[(4-{N-[(2-chlorophenyl)methyl]carbamoyl}-4-{[N-(4-ethylphenyl)carbamoyloxy]methyl}piperidyl)carbonyl]morpholine-4-carboxylate], for which the IC50 came to 1680 nM.

On to `CCc1ccc(NC(=O)OCC2(C(=O)NCc3ccccc3Cl)CCN(C(=O)OC(C)(C)C)CC2)cc1` [tert-butyl 4-{N-[(2-chlorophenyl)methyl]carbamoyl}-4-{[N-(4-ethylphenyl)carbamoyloxy]methyl}piperidinecarboxylate], for which the IC50 was 3210 nM.

As to `NCC(=O)N1CCC(COC(=O)Nc2ccc3ccccc3c2)(C(=O)NCc2ccccc2Cl)CC1` [{1-(2-aminoacetyl)-4-[(N-(2-naphthyl)carbamoyloxy)methyl](4-piperidyl)}-N-[(2-chlorophenyl)methyl]carboxamide], the IC50 amounted to 83 nM.

Consider `NCC(=O)N1CCC(COC(=O)Nc2ccc3c(c2)CCC3)(C(=O)NCc2ccccc2Cl)CC1` [{1-(2-aminoacetyl)-4-[(N-indan-5-ylcarbamoyloxy)methyl](4-piperidyl)}-N-[(2-chlorophenyl)methyl]carboxamide], for which the IC50 worked out at 126 nM.

On to `NCC(=O)N1CCC(COC(=O)Nc2ccccc2)(C(=O)NCc2ccccc2Cl)CC1` [{1-(2-aminoacetyl)-4-[(N-phenylcarbamoyloxy)methyl](4-piperidyl)}-N-[(2-chlorophenyl)methyl]carboxamide], for which the IC50 stood at 9210 nM.

For the compound `CCc1ccc(NC(=O)OC2CCCN(C(=O)NCc3ccccc3C)C2)cc1` (stereo not drawn) [{3-[N-(4-ethylphenyl)carbamoyloxy]piperidyl}-N-[(2-methylphenyl)methyl]carboxamide], the IC50 came out at 5540 nM.

For `CCc1ccc(NC(=O)O[C@@H]2CCCN(C(=O)NCc3ccccc3Cl)C2)cc1` [{(3R)-3-[N-(4-ethylphenyl)carbamoyloxy]piperidyl}-N-[(2-chlorophenyl)methyl]carboxamide], the 50% inhibitory concentration (IC50) came out at 1560 nM.

With `CCc1ccc(NC(=O)O[C@H]2CCCN(C(=O)NCc3ccccc3Cl)C2)cc1` [{(3S)-3-[N-(4-ethylphenyl)carbamoyloxy]piperidyl}-N-[(2-chlorophenyl)methyl]carboxamide], the half-maximal inhibitory concentration (IC50) was determined as 10200 nM.

With `CCc1ccc(NC(=O)OCC2(C(=O)NCc3ccccc3C(F)(F)F)CCN(C(=O)CN)CC2)cc1` [{[1-(2-aminoacetyl)-4-(N-{[2-(trifluoromethyl)phenyl]methyl}carbamoyl)(4-piperidyl)]methoxy}-N-(4-ethylphenyl)carboxamide], the IC50 worked out at 86 nM.

Turning to `CCc1ccc(NC(=O)OCC2(C(=O)NCc3ccc(C(F)(F)F)cc3F)CCN(C(=O)CN)CC2)cc1` [{[1-(2-aminoacetyl)-4-(N-{[2-fluoro-4-(trifluoromethyl)phenyl]methyl}carbamoyl)(4-piperidyl)]methoxy}-N-(4-ethylphenyl)carboxamide], the IC50 came out at 11800 nM.

With `CCc1ccc(NC(=O)OCCN(C)C(=O)NCc2cccc(Cl)c2Cl)cc1` [{[(2,3-dichlorophenyl)methyl]amino}-N-{2-[N-(4-ethylphenyl)carbamoyloxy]ethyl}-N-methylcarboxamide], the IC50 came to 59 nM.

As to `CN(CCOC(=O)Nc1ccc2ccccc2c1)C(=O)NCc1ccccc1Cl` [{[(2-chlorophenyl)methyl]amino}-N-methyl-N-[2-(N-(2-naphthyl)carbamoyloxy)ethyl]carboxamide], the IC50 was 30 nM.

With `CN(CCOC(=O)Nc1ccc2ncccc2c1)C(=O)NCc1ccccc1Cl` [{[(2-chlorophenyl)methyl]amino}-N-methyl-N-[2-(N-(6-quinolyl)carbamoyloxy)ethyl]carboxamide], the concentration for half-maximal inhibition (IC50) was determined as 1410 nM.
